The values below come from ChEMBL document CHEMBL1132886, “Syntheses and properties of photoactivatable sugar derivatives designed to probe the sugar-binding site of melibiose permease” (Bioorg Med Chem Lett, 2000).

Assay [1] is described as follows: Binding affinity against melibiose permease ofEscherichia coli. Also noted: species or system Escherichia coli.
The nature of assay [2]: Binding affinity against melibiose permease of Escherichia coli.

One may read the Kd as a measure of binding affinity in units of concentration. With `N#[N+]c1ccc(OC2O[C@H](CO)[C@@H](O)[C@H](O)[C@H]2O)cc1` (some centres undefined), the dissociation constant (Kd) in assay [1] worked out at 60000 nM.

`[N-]=[N+]=Nc1ccc(OC2O[C@H](CO)[C@@H](O)[C@H](O)[C@H]2O)cc1` (some centres undefined) yielded a Kd in assay [1] of 1000 nM. This Kd is about 60-fold lower than that of the compound before.

On to `OC[C@H]1OC(Oc2ccc(C3(C(F)(F)F)N=N3)cc2)[C@H](O)[C@@H](O)[C@@H]1O` (some centres undefined), for which the Kd in assay [1] was 2000 nM.

Compound `O=[N+]([O-])c1ccc(O[C@H]2O[C@H](CO)[C@@H](O)[C@H](O)[C@H]2O)cc1` yielded a Kd in assay [2] of 600 nM.
